PMC8129988 (Inorganic Chemistry Frontiers, 2021)

Experiments:
[1] = system: UM-UC-14 cells; assay: ligand release by UV fluorescence microscopy; assay type: cell-based, human; details: 10 μM, 24 h, UM-UC-14, fluorescence microscopy
Procedure: The enhanced stability of Co(acac)2LPon under normoxia and its hypoxia-induced ligand release was subsequently confirmed by fluorescence microscopy. Fluorescence intensities indicated a ∼2.8-fold decreased stability of the cobalt(III) complex under hypoxic vs. normoxic cell culture conditions.
UM-UC-14 cells were seeded (2.5 × 10^5 cells per well) in 12-well plates and after 24 h recovery treated with 10 μM of compounds. After 24 h incubation, the drug solutions were removed, cells were washed with PBS and microphotographs of the different treatments were taken using UV fluorescence microscopy (Nikon Eclipse Ti2 microscope with a DAPI filter and a high-pressure mercury lamp) and a 20× objective. The level of cellular fluorescence was determined from fluorescence microscopy images using ImageJ software.
Figure S9: Ligand release of Co(acac)2LPon under normoxic and hypoxic cell culture conditions in comparison to LPon using UV fluorescence microscopy. UM-UC-14 cells were incubated with 10 µM of compounds for 24 h. Images of the different treatments were taken by UV fluorescence microcopy (20X objective) and the corrected total cell fluorescence was evaluated using ImageJ software. Data in Figure S9B are given as means ± SD of ten analyzed microphotographs per compound. Statistical significance was calculated by unpaired t test with p < .05(*). […]

[2] = system: p-ERK1/2 and p-S6 in K-562 cells; assay: western blot of downstream signalling, 12 h; assay type: cell-based, human; details: hypoxic conditions, K-562, 12 h
Procedure: Fig. 10 Impact of the cobalt(III) complexes on the ERK1/2 and S6 under normoxic and hypoxic conditions. K-562 cells were treated with the compounds, after 12 h cell lysates were prepared and protein expression as well as phosphorylation levels of downstream pathways (p-ERK1/2 and p-S6) analyzed by western blotting. One representative experiment out of three is shown. The ratio of phosphorylated to total protein is given between the respective lanes.
K-562 cells were plated (5 × 10^5 cells per well) in 6-well plates and allowed to recover for 24 h. Subsequently, the cells were treated with the drugs in different concentrations. After 12 h cells were harvested, proteins were isolated, resolved by sodium dodecyl sulfate polyacrylamide gel electrophoresis (SDS/PAGE), and transferred onto a polyvinylidene difluoride membrane for western blotting. The following antibodies were used: ERK1/2 (p44/42) rabbit monoclonal antibody (mAb) (137F5, #4695), phospho-ERK1/2 rabbit mAb (Thr202/Tyr204) (20G11, #4376), phospho-S6 rabbit pAb (Ser240/244, #2215) (Cell Signaling Technology, Beverly, MA, USA), S6 mouse mAb (C-8. #sc-74459) (Santa Cruz Biotechnology, TX, USA) and β-actin mouse mAb (#A5441, Sigma). All primary antibodies were used in 1 : 1000 dilutions (in Tris-buffered saline containing 0.1% Tween20 (TBST) + 3% bovine serum albumin (BSA)). Secondary goat anti-mouse-IgG (Fc specific)-peroxidase antibody (#A0168, Sigma) and horseradish peroxidase(HRP)-labeled mouse anti-rabbit IgG (#sc-2357, Santa Cruz Biotechnology) were used at working dilutions of 1 : 10 000 (in TBST + 1% BSA).

[3] = system: FGFR3-driven UM-UC-14 xenografts; assay: UM-UC-14 xenograft experiment; assay type: in vivo, C.B.17/SCID mice; details: 10 mg kg^-1 i.p., three times a week for two weeks
Procedure: Based on this promising in vitro data, the antitumor activity of our novel cobalt(III) complexes Co(acac)2LPon and Co(Meacac)2LPon was evaluated in xenograft mouse models. As a first in vivo experiment, BCR-ABL-driven K-562 cells were injected subcutaneously (s.c.) and treated intraperitoneally (i.p.) with the test compounds at 10 mg kg^−1 or the respective amount of solvent three times a week, for two weeks. Treatment with our novel derivatives was well tolerated and even after repeated i.p. applications no substantial body weight loss was observed (Fig. S13A ^†). […] Consequently, anticancer activity of Co(acac)2LPon was also investigated against FGFR3-driven UM-UC-14 xenografts using the identical treatment regime.
Fig. 11 In vivo anticancer activity of the investigated cobalt(III) complexes. […] Tumor sizes were evaluated by caliper measurement. […] Statistical significance was calculated by two-way ANOVA with Sidak multiple comparison test with p < 0.05(*); <0.01 (**).
Eight-to nine-week-old male C.B.17/SCID mice were bread in-house (originally Harlan) and were kept in pathogen-free conditions and controlled environment with 12 h light–dark cycle. […] Tumor growth was evaluated by daily recording of tumor size by caliper measurement. […]

## CC(=O)C=C(C)[O-].CC(=O)C=C(C)[O-].Cc1ccc(C(=O)Nc2ccc(CNCCN)c(C(F)(F)F)c2)cc1C#Cc1cnc2cccnn12.O=C(O)C(F)(F)F.[Co+3] [Co(acac)2LPon, Bis(2,4-pentanedionato)N-(4-(((2-aminoethyl)amino)methyl)-3-(trifluoromethyl)phenyl)-3-(imidazo[1,2-b]pyridazin-3-ylethynyl)-4-methylbenzamide cobalt(III) 2,2,2-trifluoroacetate]
[1]
  fluorescence intensity change (decreased stability) hypoxic vs. normoxic: ~2.8 fold
[2]
  activity on S6 phosphorylation compared with ponatinib: equally active as compared to ponatinib
[3]
  body weight: without significant impact on body weight
  tumor volumes vs control: significant reduction of tumor volumes
